Source: patent US5449672A, “Alkylaminoalkylpyrrolidinylthiocarbapenem derivatives” (Banyu Pharmaceutical Co., Ltd., priority 1991, dated 1995)
In brackets after ≈: the same amount, converted by molar mass. Where two headings read alike, the source gives them in different places.

Columns and labels:
P. aeruginosa MB5002 = test: Minimum inhibitory concentration (MIC), agar plate dilution method, P. aeruginosa MB5002; assay type: cell-based; details: Pseudomonas aeruginosa, read-out: Minimum Inhibitory Concentration (MIC)
Protocol: (§1) One platinum loopful of each test microorganism incubated overnight in Mueller Hinton broth, was inoculated to Mueller Hinton agar (inoculum size: 10^6 CFU/ml). Such culture media contained antibacterial agents in various concentrations. After incubation at 37° C. for 16 hours, the minimum inhibitory concentrations (MIC: μg/ml) were measured. Further, the DHP-I susceptibility was quantitatively analyzed by the method by Kropp et al. (Antimicrob. Agents Chemother., vol. 22, p. 62-70 (1982)), whereby the smaller the numerical value representing the ratio to imipenem (=1.0), the higher the stability.
(§2) The minimum inhibitory concentrations and the DHP-I susceptibility of the compounds of the present invention were compared with imipenem and the compound of REFERENCE EXAMPLE 4.

P. aeruginosa MB5178 = test: Minimum inhibitory concentration (MIC), agar plate dilution method, P. aeruginosa MB5178; assay type: cell-based; details: Pseudomonas aeruginosa, read-out: Minimum Inhibitory Concentration (MIC)
Protocol: as §1, §2

[1] = test system: DHP-I (renal dehydropeptidase I); test: DHP-I susceptibility, method by Kropp et al.; assay type: in vitro ADME; details: ratio to imipenem (=1.0); the smaller the value, the higher the stability
Protocol: as §1, §2

[2] = test system: gram positive bacteria and gram negative bacteria; details: literature, in words; cited from earlier work
[3] = test system: Methicillin resistant Staphylococcus aureus and resistant Pseudomonas aeruginosa; details: prior-art compounds; highly methicillin resistant S. aureus and resistant P. aeruginosa; cited from earlier work
DHP-I = details: in vivo; human kidney for imipenem; cited from earlier work
[4] = cited from earlier work
[5] = due to the decomposition products; cited from earlier work
β-lactamase = details: literature, in words; cited from earlier work
[6] = in words; cited from earlier work
[7] = P. aeruginosa MB5002, Mueller Hinton agar, inoculum 10^6 CFU/ml, 37° C., 16 hours
[8] = P. aeruginosa MB5178, Mueller Hinton agar, inoculum 10^6 CFU/ml, 37° C., 16 hours

Structure (SMILES)	MIC (P. aeruginosa MB5002; [7])	MIC (P. aeruginosa MB5178; [8])	DHP-I susceptibility [1]	antibacterial activities [2]	decomposition by renal dehydropeptidase I (DHP-I) (DHP-I)	also measured
C[C@@H](O)[C@H]1C(=O)N2C(C(=O)O)=C(SCCN=CN)C[C@H]12 [Imipenem, (5R,6S,8R)-3-[[2-(formimidoylamino)ethyl]thio]-6-(1-hydroxyethyl)-7-oxo-1-azabicyclo[3.2.0]hept-2-en-2-carboxylic acid monohydrate]	–	–	1.0	antibacterial activities of an equal or higher level than thienamycin against various types of bacteria	likely to be decomposed by DHP-I in the human kidney	MIC (P. aeruginosa MB5002; MB5002, 16 h): 1.56 µg/mL; MIC (P. aeruginosa MB5178; MB5178, 16 h): 25 µg/mL; treating effects / antibacterial activities against resistant bacteria [3]: does not show adequate treating effects against these resistant bacteria; stability in the solid form or in an aqueous solution ([4]; relative to thienamycin): remarkably improved over thienamycin; toxicity against the kidney [5]: presents toxicity against the kidney due to the decomposition products; β-lactamase resistance (β-lactamase): has β-lactamase resistance
C[C@@H](O)[C@H]1C(=O)N2C(C(=O)O)=C(SCCN)C[C@H]12 [Thienamycin]	–	–	–	strong antibacterial activities over a wide range against gram positive bacteria and gram negative bacteria	likely to be decomposed by a certain enzyme in vivo such as renal dehydropeptidase I	chemical stability ([4]; literature, in words): chemically unstable; recovery rate in the urine [6]: low

Now from value to compound, other results behind:

MIC (P. aeruginosa MB5002; [7])	MIC (P. aeruginosa MB5178; [8])	DHP-I susceptibility [1]	Structure (SMILES)	antibacterial activities [2]	decomposition by renal dehydropeptidase I (DHP-I) (DHP-I)	also measured
0.78 µg/mL (≈ 2.11 µM)	3.13 µg/mL (≈ 8.47 µM)	< 0.05	CNCC[C@@H]1C[C@H](SC2=C(C(=O)O)N3C(=O)[C@H]([C@@H](C)O)[C@H]3[C@H]2C)CN1 [Example 1, (1R,5S,6S)-6-[(R)-1-Hydroxyethyl]-1-methyl-2-[(2R,4S)-2-[2-(methylamino)ethyl]pyrrolidin-4-ylthio]-1-carbapen-2-em-3-carboxylic Acid]	–	–	–
0.78 µg/mL	3.13 µg/mL	0.07	CNCCC[C@@H]1C[C@H](SC2=C(C(=O)O)N3C(=O)[C@H]([C@@H](C)O)[C@H]3[C@H]2C)CN1.Cl [Example 3, (1R,5S,6S)-6-[(R)-1-Hydroxyethyl]-1-methyl-2-[(2R,4S)-2-[3-(methylamino)propyl]pyrrolidin-4-ylthio]-1-carbapen-2-em-3-carboxylic acid Monohydrochloride]	–	–	–
6.25 µg/mL (≈ 16.3 µM)	12.5 µg/mL (≈ 32.6 µM)	0.7	CC(=O)NC[C@@H]1C[C@H](SC2=C(C(=O)O)N3C(=O)[C@H]([C@@H](C)O)[C@H]3[C@H]2C)CN1 [compound 1, (1R,5S,6S)-2-[(2S,4S)-2-(Acetylaminomethyl)pyrrolidin-4-ylthio]-6-[(R)-1-hydroxyethyl]-1-methyl-1-carbapen-2-em-3-carboxylic Acid]	–	–	–
